Data from patent publication US20240218022A1, “ANTI-VISTA MACROCYCLIC PEPTIDES AND COMPOSITIONS” (BRISTOL-MYERS SQUIBB COMPANY, priority 2022, published 2024).
Starred links: 1 amine or outer side, 2 acyl side, 3 side chain; linkers in the order of their positions; H or OH if unused. Positions of bridges follow the written chain, without caps; N, C: chain ends. Non-standard residues stand in square brackets, D forms with d. Residues, ends and D or L forms follow the SMILES beside them. Phe(4-COOH) = N[C@@H](Cc1ccc(C(=O)O)cc1)C(=O)O; βAsp = O=C(O)[C@H](CC(=O)[*:2])N[*:1]; Aad = N[C@@H](CCCC(=O)O)C(=O)O; Cha = N[C@@H](CC1CCCCC1)C(=O)O; NMeL = CN[C@@H](CC(C)C)C(=O)O; Ahp(2) = CCCCC[C@H](N)C(=O)O; NMeNle = CCCC[C@H](NC)C(=O)O; Tle = CC(C)(C)[C@H](N)C(=O)O; NMeS = CN[C@@H](CO)C(=O)O; NHexGly = CCCCCCNCC(=O)O; Orn = NCCC[C@H](N)C(=O)O; Aun = NCCCCCCCCCCC(=O)O; Abu = CC[C@H](N)C(=O)O; AEEA = NCCOCCOCC(=O)O

Target: T1, mouse VISTA (mVISTA) (Mus musculus, UniProt Q9D659)
T1 construct: expressed in transfected cells; host or cells: Human embryonic kidney 293T cells
T1 sequence (Q9D659 33-308): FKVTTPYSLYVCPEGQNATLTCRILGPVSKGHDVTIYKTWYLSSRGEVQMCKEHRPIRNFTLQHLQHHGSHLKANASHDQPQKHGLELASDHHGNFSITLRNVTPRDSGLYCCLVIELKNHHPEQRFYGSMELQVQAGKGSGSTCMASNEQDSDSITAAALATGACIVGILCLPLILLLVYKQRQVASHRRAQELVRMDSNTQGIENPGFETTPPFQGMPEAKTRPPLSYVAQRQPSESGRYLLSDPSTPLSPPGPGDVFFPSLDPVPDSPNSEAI
Test: Cell-Based Binding High-Content Assay For mVISTA (HC CBA mVISTA)
Conditions: cell-based binding high-content assay, mVISTA; read-out: HC CBA miPr ISTA IC50
Summary of the method: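 Competition of compound with a biotinylated peptide (final 2 nM, 30 min at RT) for binding to mVISTA on 293T cells, run under no-wash or wash (1 h compound preincubation then removal) formats. Readout by Alexa 647–streptavidin imaging on a high-content platform; four-parameter logistic fit gave IC50.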

SMILES | IC50 [µM]
CCCCCCN1CC(=O)N[C@@H](Cc2ccc(O)cc2)C(=O)N[C@@H](CC(C)C)C(=O)N[C@@H](CC(N)=O)C(=O)N[C@@H](CCCNC(=N)N)C(=O)N(C)[C@@H](CCCC)C(=O)N[C@@H](CCCCC)C(=O)N2CCC[C@H]2C(=O)N[C@@H](C(C)(C)C)C(=O)N[C@@H](CO)C(=O)N[C@H](C(=O)N[C@@H](CC(=O)NCCOCCOCC(=O)N[C@@H](CC(=O)O)C(=O)NCCOCCOCC(=O)NCCCCCCCCCCC(=O)O)C(=O)O)CSCC(=O)N[C@@H](Cc2ccc(C(=O)O)cc2)C(=O)N[C@@H](Cc2ccc(O)cc2)C(=O)N[C@@H](CC(=O)O)C1=O [compound 2050] ({CH2CO}-[Phe(4-COOH)]YD[NHexGly]YLNR[NMeNle][Ahp(2)]P[Tle]SC[βAsp][AEEA]D[AEEA][Aun]-OH; thioether N-14) | 0.0241
CCCCCCN1CC(=O)N[C@@H](Cc2ccc(O)cc2)C(=O)N[C@@H](CC(C)C)C(=O)N[C@@H](CC(N)=O)C(=O)N[C@@H](CCCNC(=N)N)C(=O)N(C)[C@@H](CC(C)C)C(=O)N[C@@H](CCCCC)C(=O)N2CCC[C@H]2C(=O)N[C@@H](C(C)(C)C)C(=O)N[C@@H](CO)C(=O)N[C@H](C(=O)N[C@@H](CC(=O)NCCOCCOCC(=O)N[C@@H](CC(=O)O)C(=O)NCCOCCOCC(=O)NCCCCCCCCCCC(=O)O)C(=O)O)CSCC(=O)N[C@@H](Cc2ccc(C(=O)O)cc2)C(=O)N[C@@H](Cc2ccc(O)cc2)C(=O)N[C@@H](CC(=O)O)C1=O [compound 2052] ({CH2CO}-[Phe(4-COOH)]YD[NHexGly]YLNR[NMeL][Ahp(2)]P[Tle]SC[βAsp][AEEA]D[AEEA][Aun]-OH; thioether N-14) | 0.0317
CCCCCCN1CC(=O)N[C@@H](Cc2ccc(O)cc2)C(=O)N[C@@H](CC2CCCCC2)C(=O)N[C@@H](CC(N)=O)C(=O)N[C@@H](CCCN)C(=O)N(C)[C@@H](CCCC)C(=O)N[C@@H](CCCCC)C(=O)N2CCC[C@H]2C(=O)N[C@@H](C(C)(C)C)C(=O)N[C@@H](CO)C(=O)N[C@H](C(=O)N[C@@H](CC(=O)NCCOCCOCC(=O)N[C@@H](CC(=O)O)C(=O)NCCOCCOCC(=O)NCCCCCCCCCCC(=O)O)C(=O)O)CSCC(=O)N[C@@H](Cc2ccccc2)C(=O)N[C@@H](Cc2ccc(O)cc2)C(=O)N[C@@H](CC(=O)O)C1=O [compound 2055] ({CH2CO}-FYD[NHexGly]Y[Cha]N[Orn][NMeNle][Ahp(2)]P[Tle]SC[βAsp][AEEA]D[AEEA][Aun]-OH; thioether N-14) | 0.0327
CCCCCCN1CC(=O)N[C@@H](Cc2ccc(O)cc2)C(=O)N[C@@H](CCCC(=O)O)C(=O)N[C@@H](CC(N)=O)C(=O)N[C@@H](CCCN)C(=O)N(C)[C@@H](CCCC)C(=O)N[C@@H](CCCCC)C(=O)N2CCC[C@H]2C(=O)N[C@@H](C(C)(C)C)C(=O)N[C@@H](CO)C(=O)N[C@H](C(=O)N[C@@H](CC(=O)NCCOCCOCC(=O)N[C@@H](CC(=O)O)C(=O)NCCOCCOCC(=O)NCCCCCCCCCCC(=O)O)C(=O)O)CSCC(=O)N[C@@H](Cc2ccccc2)C(=O)N[C@@H](Cc2ccc(O)cc2)C(=O)N[C@@H](CC(=O)O)C1=O [compound 2056] ({CH2CO}-FYD[NHexGly]Y[Aad]N[Orn][NMeNle][Ahp(2)]P[Tle]SC[βAsp][AEEA]D[AEEA][Aun]-OH; thioether N-14) | 0.0261
CCCCCCN1CC(=O)N[C@@H](Cc2ccc(O)cc2)C(=O)N[C@@H](C)C(=O)N[C@@H](CC(N)=O)C(=O)N[C@@H](CCCNC(=N)N)C(=O)N(C)[C@@H](CCCC)C(=O)N[C@@H](CCCCC)C(=O)N2CCC[C@H]2C(=O)N[C@@H](C(C)(C)C)C(=O)N[C@@H](CO)C(=O)N[C@H](C(=O)N[C@@H](CC(=O)NCCOCCOCC(=O)N[C@@H](CC(=O)O)C(=O)NCCOCCOCC(=O)NCCCCCCCCCCC(=O)O)C(=O)O)CSCC(=O)N[C@@H](Cc2ccccc2)C(=O)N[C@@H](Cc2ccc(O)cc2)C(=O)N[C@@H](CC(=O)O)C1=O [compound 2058] ({CH2CO}-FYD[NHexGly]YANR[NMeNle][Ahp(2)]P[Tle]SC[βAsp][AEEA]D[AEEA][Aun]-OH; thioether N-14) | 0.0276
CCCCCCN1CC(=O)N[C@@H](Cc2ccc(O)cc2)C(=O)N[C@@H](CC)C(=O)N[C@@H](CC(N)=O)C(=O)N[C@@H](CCCNC(=N)N)C(=O)N(C)[C@@H](CCCC)C(=O)N[C@@H](CCCCC)C(=O)N2CCC[C@H]2C(=O)N[C@@H](C(C)(C)C)C(=O)N[C@@H](CO)C(=O)N[C@H](C(=O)N[C@@H](CC(=O)NCCOCCOCC(=O)N[C@@H](CC(=O)O)C(=O)NCCOCCOCC(=O)NCCCCCCCCCCC(=O)O)C(=O)O)CSCC(=O)N[C@@H](Cc2ccccc2)C(=O)N[C@@H](Cc2ccc(O)cc2)C(=O)N[C@@H](CC(=O)O)C1=O [compound 2059] ({CH2CO}-FYD[NHexGly]Y[Abu]NR[NMeNle][Ahp(2)]P[Tle]SC[βAsp][AEEA]D[AEEA][Aun]-OH; thioether N-14) | 0.0374
CCCCCCN1CC(=O)N[C@@H](Cc2ccc(O)cc2)C(=O)N[C@@H](CC)C(=O)N[C@@H](CC(N)=O)C(=O)N[C@@H](CCCN)C(=O)N(C)[C@@H](CCCC)C(=O)N[C@@H](CCCCC)C(=O)N2CCC[C@H]2C(=O)N[C@@H](C(C)(C)C)C(=O)N[C@@H](CO)C(=O)N[C@H](C(=O)N[C@@H](CC(=O)NCCOCCOCC(=O)N[C@@H](CC(=O)O)C(=O)NCCOCCOCC(=O)NCCCCCCCCCCC(=O)O)C(=O)O)CSCC(=O)N[C@@H](Cc2ccccc2)C(=O)N[C@@H](Cc2ccc(O)cc2)C(=O)N[C@@H](CC(=O)O)C1=O [compound 2060] ({CH2CO}-FYD[NHexGly]Y[Abu]N[Orn][NMeNle][Ahp(2)]P[Tle]SC[βAsp][AEEA]D[AEEA][Aun]-OH; thioether N-14) | 0.0247
CCCCCCN1CC(=O)N[C@@H](Cc2ccc(O)cc2)C(=O)N[C@@H](C)C(=O)N[C@@H](CC(N)=O)C(=O)N[C@@H](CCCN)C(=O)N(C)[C@@H](CCCC)C(=O)N[C@@H](CCCCC)C(=O)N2CCC[C@H]2C(=O)N[C@@H](C(C)(C)C)C(=O)N[C@@H](CO)C(=O)N[C@H](C(=O)N[C@@H](CC(=O)NCCOCCOCC(=O)N[C@@H](CC(=O)O)C(=O)NCCOCCOCC(=O)NCCCCCCCCCCC(=O)O)C(=O)O)CSCC(=O)N[C@@H](Cc2ccccc2)C(=O)N[C@@H](Cc2ccc(O)cc2)C(=O)N[C@@H](CC(=O)O)C1=O [compound 2061] ({CH2CO}-FYD[NHexGly]YAN[Orn][NMeNle][Ahp(2)]P[Tle]SC[βAsp][AEEA]D[AEEA][Aun]-OH; thioether N-14) | 0.0215

The next lines start with the values.

IC50 [µM] | SMILES
0.0488 | CCCCCCN1CC(=O)N[C@@H](Cc2ccc(O)cc2)C(=O)N[C@@H](CC(C)C)C(=O)N[C@@H](CC(N)=O)C(=O)N[C@@H](CCCN)C(=O)N(C)[C@@H](CCCC)C(=O)N[C@@H](CCCCC)C(=O)N2CCC[C@H]2C(=O)N[C@@H](C(C)(C)C)C(=O)N[C@@H](CO)C(=O)N[C@H](C(=O)N[C@@H](CC(=O)NCCOCCOCC(=O)N[C@@H](CC(=O)O)C(=O)NCCOCCOCC(=O)NCCCCCCCCCCC(=O)O)C(=O)O)CSCC(=O)N[C@@H](Cc2ccc(C(=O)O)cc2)C(=O)N[C@@H](Cc2ccc(O)cc2)C(=O)N[C@@H](CC(=O)O)C1=O [compound 2047] ({CH2CO}-[Phe(4-COOH)]YD[NHexGly]YLN[Orn][NMeNle][Ahp(2)]P[Tle]SC[βAsp][AEEA]D[AEEA][Aun]-OH; thioether N-14)
0.035 | CCCCCCN1CC(=O)N[C@@H](Cc2ccc(O)cc2)C(=O)N[C@@H](CC(C)C)C(=O)N[C@@H](CC(N)=O)C(=O)N[C@@H](CCCNC(=N)N)C(=O)N(C)[C@@H](CO)C(=O)N[C@@H](CCCCC)C(=O)N2CCC[C@H]2C(=O)N[C@@H](C(C)(C)C)C(=O)N[C@@H](CC(=O)O)C(=O)N[C@H](C(=O)N[C@@H](CC(=O)NCCOCCOCC(=O)N[C@@H](CC(=O)O)C(=O)NCCOCCOCC(=O)NCCCCCCCCCCC(=O)O)C(=O)O)CSCC(=O)N[C@@H](Cc2ccc(C(=O)O)cc2)C(=O)N[C@@H](Cc2ccc(O)cc2)C(=O)N[C@@H](CC(=O)O)C1=O [compound 2048] ({CH2CO}-[Phe(4-COOH)]YD[NHexGly]YLNR[NMeS][Ahp(2)]P[Tle]DC[βAsp][AEEA]D[AEEA][Aun]-OH; thioether N-14)
0.0394 | CCCCCCN1CC(=O)N[C@@H](Cc2ccc(O)cc2)C(=O)N[C@@H](CC2CCCCC2)C(=O)N[C@@H](CC(N)=O)C(=O)N[C@@H](CCCNC(=N)N)C(=O)N(C)[C@@H](CCCC)C(=O)N[C@@H](CCCCC)C(=O)N2CCC[C@H]2C(=O)N[C@@H](C(C)(C)C)C(=O)N[C@@H](CO)C(=O)N[C@H](C(=O)N[C@@H](CC(=O)NCCOCCOCC(=O)N[C@@H](CC(=O)O)C(=O)NCCOCCOCC(=O)NCCCCCCCCCCC(=O)O)C(=O)O)CSCC(=O)N[C@@H](Cc2ccccc2)C(=O)N[C@@H](Cc2ccc(O)cc2)C(=O)N[C@@H](CC(=O)O)C1=O [compound 2053] ({CH2CO}-FYD[NHexGly]Y[Cha]NR[NMeNle][Ahp(2)]P[Tle]SC[βAsp][AEEA]D[AEEA][Aun]-OH; thioether N-14)
0.0232 | CCCCCCN1CC(=O)N[C@@H](Cc2ccc(O)cc2)C(=O)N[C@@H](CCCC(=O)O)C(=O)N[C@@H](CC(N)=O)C(=O)N[C@@H](CCCNC(=N)N)C(=O)N(C)[C@@H](CCCC)C(=O)N[C@@H](CCCCC)C(=O)N2CCC[C@H]2C(=O)N[C@@H](C(C)(C)C)C(=O)N[C@@H](CO)C(=O)N[C@H](C(=O)N[C@@H](CC(=O)NCCOCCOCC(=O)N[C@@H](CC(=O)O)C(=O)NCCOCCOCC(=O)NCCCCCCCCCCC(=O)O)C(=O)O)CSCC(=O)N[C@@H](Cc2ccccc2)C(=O)N[C@@H](Cc2ccc(O)cc2)C(=O)N[C@@H](CC(=O)O)C1=O [compound 2054] ({CH2CO}-FYD[NHexGly]Y[Aad]NR[NMeNle][Ahp(2)]P[Tle]SC[βAsp][AEEA]D[AEEA][Aun]-OH; thioether N-14)
